Results from US7470669B2, “Isolated polypeptide comprising a leptin fragment” (Serono Genetics Institute, S.A., priority 1999, dated 2008).

Columns and labels:
[1] = tested on: bovine brain capillary endothelial cells; experiment: Leptin transcytosis in blood-brain barrier in vitro model; type: cell-based; details: for leptin transport / transcytosis: 10 ng/mL 125I-leptin + 50 μg/mL peptide
Experimental: Cells were incubated with ^125I-leptin alone (10,000 dpm/ng) (closed squares), with 1 μg/mL unlabelled leptin (triangles), 50 μg/mL MP (circles), 50 μg/mL HP (open squares), or 2 mg/mL lactoferrin (asterisks).
Human leptin transport through the blood-brain barrier (BBB) is studied using an in vitro model (Dehouck, et al J Neurochem 54:1798-801, 1990 hereby incorporated herein by reference in its entirety including any figures, tables, or drawings). This model closely mimics the in vivo situation with regard to the selective passage of nutrients and drugs through the cerebro-vascular endothelium. […] Briefly, this model consists of a co-culture of bovine brain capillary endothelial cells (ECs) and rat astrocytes (FIG. 31). The astrocytes are seeded on the plastic of a six-well dish and grown for 3 weeks. A collagen-coated filter is then set in each dish and bovine ECs are plated on the upper-side of the filter. ECs form a confluent monolayer in 5 days and they are used for experiments after 16 days of coculture with astrocytes.
Leptin transcytosis: Experiments were performed on brain capillary endothelial cells in coculture with astrocytes for 16 days. On the day of the experiment, ECs were transferred to a clean 6-well plate containing 2 mL of Ringer-Hepes buffer (see, FIG. 32). At time 0, 1 mL Ringer Hepes containing ^125I-leptin was placed in the upper compartment. After 30, 60, 120, or 180 min incubation at 37° C. on a rocking platform, the insert was transferred into another well of a six-well plate to minimize the possible passage of substances from the lower to the upper compartment. At the end of the experiment, the amount of radioactivity of each well was counted. […]
The transport of molecules through the endothelial monolayer was determined for each time point as % passage: % passage of radiolabelled molecule through the endothelium: dpm found in the lower compartment at a time point divided by the initial dpm found in the upper compartment: % transport at 30 min=(lower dpm t30/upper dpm)*100.

LSR = LSR activity (oleate-induced 125I-LDL binding, uptake, degradation) in PLC cells; type: cell-based, human; details: for LSR activity in human cells: 22-mer peptide, increasing concentrations
Experimental: FIGS. 5A, 5B, 5C, and 5D show the stimulatory effect of leptin on LSR activity in PLC and suppression of this effect by 81B antibody. For FIGS. 5A, 5B, and 5C, cultured PLC cells were incubated at 37° C. for 30 min with increasing concentrations of human recombinant leptin in Buffer A. After this, 0.5 mM oleate and 20 μg/mL ^125I-LDL were added, and cells were further incubated at 37° C. for 2 h. Cells were washed, and the amount of oleate-induced ^125I-LDL bound (5A), internalized (5B) and degraded (5C) were measured. For FIG. 5D, PLC cells were incubated at room temperature for 30 min with 200 μg/mL anti-LSR peptide 81B or 170 antibody, followed by incubation at 37° C. for 30 min without (open bar) or with (hatched bar) 10 ng/mL human leptin. Oleate (0.5 mM) and ^125I-LDL (20 μg/mL) were added, and the monolayers were left at 37° C. for 3 h. After washing, the amount of ^125I-LDL binding was determined, and is shown here as the mean±SD of triplicate determinations.
FIGS. 8A and 8B show the effect of mouse or human leptin on LSR activity in primary cultures of rat hepatocytes or a human liver cell line (PLC). Primary cultured rat hepatocytes were obtained commercially (In Vitro Tech). The PLC cell line was obtained from ATCC repository and maintained in culture. Rat hepatocytes 72 h after plating (8A) or confluent monolayers of PLC (8B) were incubated 30 min at 37° C. with 0 (closed bar) or 10 ng/mL of human (open bar) or mouse (hatched bar) recombinant leptin. Following this, 0.5 mM oleate and 20 μg/mL ^125I-LDL were added and the cells were further incubated for 2 h at 37° C. […] The cells were washed, and the amount of oleate-induced ^125I-LDL bound and degraded was measured as described previously (Bihain, B. E., and Yen, F. T. (1992). Free fatty acids activate a high-affinity saturable pathway for degradation of low density lipoproteins infibroblasts from a subject homozygous for familial hypercholesterolemia. Biochemistry 31, 4628-4636.
FIGS. 35A and 35B show graphs of LSR activity and mRNA expression measured in PLC cells preincubated 24 h with leptin. In FIG. 35A, PLC monolayers were incubated 24 h at 37° C. with (o) or without (n) 200 ng/mL human recombinant leptin. After washing with PBS, cells were incubated 30 min at 37° C. with increasing concentrations of human leptin, followed by a 2 h incubation at 37° C. with 0.8 mM oleate and 20 μg/mL ^125I-LDL. Cells were washed, and the amount of oleate-induced ^125I-LDL binding was measured as described previously. Results are shown as the mean of triplicate determinations. In FIG. 35B, PLC monolayers were incubated 24 h at 37° C. with 0, 200, or 400 ng/mL human recombinant leptin. After washing with PBS, the cells were harvested. Total RNA was prepared from the cell pellets, and Northerns were performed to detect LSR mRNA, using GAPDH probe as loading control as described previously. Northern blots were scanned on the Phosphorimager (Molecular Dynamics, Sunnyvale, Calif.). Densitometric analysis of the images was performed using the software ImageQuant. Results are shown as the amount of LSR signal relative to that of GAPDH (mean±SD, n=3/condition). […]

Substance	leptin transport / transcytosis [1]	LSR activity in human cells (LSR; PLC cells)	reduction of the amount of 125I-leptin transported ([1]; 10 ng/mL 125I-leptin + 1 μg/mL cold leptin)	leptin concentration at which the effect on LSR activity was observed (LSR; PLC cells, human recombinant leptin) [ng/mL]	oleate-induced LSR binding uptake and degradation of 125I-LDL (LSR; PLC cells, human recombinant leptin, 30 min preincubation, 0.5 mM oleate)	leptin concentration needed for maximal stimulatory effect (LSR; PLC preincubated 24 h with 200 ng/mL leptin) [ng/mL]	reduction of the maximal stimulatory effect on oleate-induced 125I-LDL binding (LSR; PLC preincubated 24 h with 200 ng/mL leptin, then short incubation with leptin)
CHLPWASGLETLDSLGGVLEAS (listed as Homo sapiens) [human peptide, human leptin fragment residues 117-138, 22-mer]	significant increase	agonistic					
CSLPQTSGLQKPESLDGVLEAS (listed as Mus musculus) [mouse peptide, mouse leptin fragment residues 117-138, 22-mer]	no significant effect	antagonist					
leptin: plasma protein of 16 kDa produced by adipocytes; recombinant human or mouse leptin, species depends on the experiment			approximately 30%	≥ 10	directly increased	100	about 50%
